Experimental data taken from ChEMBL document CHEMBL5370632, “Expanding the Chemical Space: New Approach to Cell-Permeable Drugs” (ACS Med Chem Lett, 2023).

How the values were obtained:
[1] = biological target: Bcr/Abl fusion protein (Homo sapiens, UniProt P00519); type: protein assay
[2] = biological target: Bcr/Abl fusion protein (Homo sapiens, UniProt P00519, T315I); test: Inhibition of human BCR-ABL1 T315I mutant using Tyr2 peptide as substrate incubated for 1 hrs by FRET based Z-LYTE assay; type: protein assay
[3] = test system: K562; test: Antiproliferative activity against human K562 cells expressing ABL T315I mutant assessed as inhibition of cell growth incubated for 3 days by celltiter-glo 2.0 assay; type: functional, cell-based; conditions: K562, 72 h
[4] = test system: K562; test: Antiproliferative activity against human K562 cells assessed as inhibition of cell growth incubated for 3 days by celltiter-glo 2.0 assay; type: functional, cell-based; conditions: K562, 72 h
[5] = test system: K562; test: cells; conditions: Homo sapiens, K562, 72 h
[6] = test system: K562; test: cells; conditions: Homo sapiens, K562, 72 h; remark: listed apart in the source

Row | EC50 [1] [nM] | EC50 [2] [nM] | EC50 [3] [nM] | EC50 [4] [nM] | EC50 [5] [nM] | EC50 [6] [nM] | SMILES
1 | 3.57 | 64 | 26.3 | 0.87 | – | – | Cc1ccc(C(=O)Nc2ccc(CN3CCN(C(=O)CCOCCOCCOCCOCCOCCOCCOCCOCCOCCOCCOCCOCCOCCOCCOCCOCCOCCOCCOCCOCCOCCOCCOCCOCCNC(=O)C4CCN(c5ncc(C(=O)Nc6ccc(OC(F)(F)Cl)cc6)cc5-c5ccn[nH]5)CC4)CC3)c(C(F)(F)F)c2)cc1C#Cc1cnc2cccnn12
2 | 0.44 | 7.23 | > 300 | 2.47 | – | – | Cc1nc(Nc2ncc(C(=O)Nc3c(C)cccc3Cl)s2)cc(N2CCN(C(=O)CCOCCOCCOCCOCCOCCOCCOCCOCCOCCOCCOCCOCCNC(=O)C3CCN(c4ncc(C(=O)Nc5ccc(OC(F)(F)Cl)cc5)cc4-c4ccn[nH]4)CC3)CC2)n1
3 | 0.8 | 23.8 | > 300 | 2.49 | – | – | Cc1nc(Nc2ncc(C(=O)Nc3c(C)cccc3Cl)s2)cc(N2CCN(C(=O)CCOCCOCCOCCOCCOCCOCCOCCOCCOCCOCCNC(=O)C3CCN(c4ncc(C(=O)Nc5ccc(OC(F)(F)Cl)cc5)cc4-c4ccn[nH]4)CC3)CC2)n1
4 | – | – | – | – | 12 | 0.26 | Cc1nc(Nc2ncc(C(=O)Nc3c(C)cccc3Cl)s2)cc(N2CCN(CCO)CC2)n1 [DASATINIB]
